Results published in ChEMBL document CHEMBL3351533, “PASS-assisted design, synthesis and antioxidant evaluation of new butylated hydroxytoluene derivatives” (Eur J Med Chem, 2014).

Tests used:
Type in all cases: physicochemical
[1] = Antioxidant activity assessed as DPPH free radical scavenging activity after 60 mins by spectrophotometry
[2] = Antioxidant activity assessed as DPPH free radical scavenging activity at 100 uM after 60 mins by spectrophotometry; details: 1 h
[3] = Antioxidant activity assessed as inhibition of lipid peroxidation after 1 hr by TBARS assay
[4] = Antioxidant activity assessed as inhibition of lipid peroxidation at 100 uM after 1 hr by TBARS assay

SMILES | IC50 [1] | Imax [2] | IC50 [3] | Imax [4]
CC(C)(C)c1cc(CSCC(=O)O)cc(C(C)(C)C)c1O | 96.7 µM | 51.2% | 38.8 µM | 73.99%
COc1ccccc1NC(=S)NNC(=O)CSCc1cc(C(C)(C)C)c(O)c(C(C)(C)C)c1 | 52 µM | 75.42% | 60.5 µM | 94.75%
COc1ccc(NC(=S)NNC(=O)CSCc2cc(C(C)(C)C)c(O)c(C(C)(C)C)c2)cc1 | 50.9 µM | 76.76% | 30.1 µM | 96.58%
COc1ccccc1Nc1nnc(CSCc2cc(C(C)(C)C)c(O)c(C(C)(C)C)c2)s1 | 90.8 µM | 54.69% | 13.2 µM | 89.18%
COc1ccc(Nc2nnc(CSCc3cc(C(C)(C)C)c(O)c(C(C)(C)C)c3)s2)cc1 | 76.8 µM | 59.29% | 7.98 µM | 89.84%
COc1ccccc1-n1c(S)nnc1CSCc1cc(C(C)(C)C)c(O)c(C(C)(C)C)c1 | > 100 µM | 27.83% | 38.9 µM | 76.47%
COc1ccc(-n2c(S)nnc2CSCc2cc(C(C)(C)C)c(O)c(C(C)(C)C)c2)cc1 | 92.7 µM | 52.94% | 2.85 µM | 86.43%
Cc1c(C)c2c(c(C)c1O)CC[C@@](C)(CCC[C@H](C)CCC[C@H](C)CCCC(C)C)O2 [ALPHA-TOCOPHEROL] | – | – | 5.63 µM | 84.69%
O=C1O[C@H]([C@@H](O)CO)C(O)=C1O [ASCORBIC ACID] | 67.8 µM | 71.39% | – | –
Cc1cc(C(C)(C)C)c(O)c(C(C)(C)C)c1 [BUTYLATED HYDROXYTOLUENE] | > 100 µM | 25.23% | 36.7 µM | 79.45%
